According to ChEMBL document CHEMBL5291721, “A preclinical secondary pharmacology resource illuminates target-adverse drug reaction associations of marketed drugs” (Nat Commun, 2023):

Key:
[1] = molecular target: Delta-type opioid receptor (Homo sapiens, UniProt P41143)
[2] = molecular target: T1, Alpha-2B adrenergic receptor (Homo sapiens, UniProt P18089)
T1 sequence (P18089 whole entry): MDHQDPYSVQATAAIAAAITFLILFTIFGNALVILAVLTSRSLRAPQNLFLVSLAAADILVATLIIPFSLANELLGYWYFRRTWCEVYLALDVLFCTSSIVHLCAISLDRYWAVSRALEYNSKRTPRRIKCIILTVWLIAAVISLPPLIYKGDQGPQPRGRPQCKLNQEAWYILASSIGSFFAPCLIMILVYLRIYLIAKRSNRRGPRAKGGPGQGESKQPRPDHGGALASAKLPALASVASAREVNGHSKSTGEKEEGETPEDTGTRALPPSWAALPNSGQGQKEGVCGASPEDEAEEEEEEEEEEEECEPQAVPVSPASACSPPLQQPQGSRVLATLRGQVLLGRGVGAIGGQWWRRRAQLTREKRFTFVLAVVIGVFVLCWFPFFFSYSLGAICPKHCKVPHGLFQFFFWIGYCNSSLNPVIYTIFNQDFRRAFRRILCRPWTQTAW

[3] = molecular target: Muscarinic acetylcholine receptor M3 (Homo sapiens, UniProt P20309)
Muscarinic acetylcholine receptor M3, sequence (P20309 whole entry): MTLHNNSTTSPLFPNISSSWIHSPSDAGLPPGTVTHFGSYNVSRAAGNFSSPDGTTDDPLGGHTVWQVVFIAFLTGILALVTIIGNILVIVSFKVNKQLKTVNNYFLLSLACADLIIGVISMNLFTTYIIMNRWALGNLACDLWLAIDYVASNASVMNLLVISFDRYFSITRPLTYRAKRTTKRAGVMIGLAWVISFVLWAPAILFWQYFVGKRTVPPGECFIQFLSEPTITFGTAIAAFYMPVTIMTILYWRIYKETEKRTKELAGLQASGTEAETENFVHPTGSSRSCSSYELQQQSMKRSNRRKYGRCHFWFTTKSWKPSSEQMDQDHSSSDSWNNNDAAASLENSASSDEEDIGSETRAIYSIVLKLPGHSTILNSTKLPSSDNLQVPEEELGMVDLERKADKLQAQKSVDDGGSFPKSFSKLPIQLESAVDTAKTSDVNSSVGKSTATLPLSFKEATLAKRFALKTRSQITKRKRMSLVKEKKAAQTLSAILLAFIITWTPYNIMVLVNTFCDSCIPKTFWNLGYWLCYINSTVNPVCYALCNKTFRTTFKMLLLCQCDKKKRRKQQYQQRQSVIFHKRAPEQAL

[4] = molecular target: T2, 5-hydroxytryptamine receptor 2A (Homo sapiens, UniProt P28223); assay type: functional, cell-based
T2 sequence (P28223 whole entry): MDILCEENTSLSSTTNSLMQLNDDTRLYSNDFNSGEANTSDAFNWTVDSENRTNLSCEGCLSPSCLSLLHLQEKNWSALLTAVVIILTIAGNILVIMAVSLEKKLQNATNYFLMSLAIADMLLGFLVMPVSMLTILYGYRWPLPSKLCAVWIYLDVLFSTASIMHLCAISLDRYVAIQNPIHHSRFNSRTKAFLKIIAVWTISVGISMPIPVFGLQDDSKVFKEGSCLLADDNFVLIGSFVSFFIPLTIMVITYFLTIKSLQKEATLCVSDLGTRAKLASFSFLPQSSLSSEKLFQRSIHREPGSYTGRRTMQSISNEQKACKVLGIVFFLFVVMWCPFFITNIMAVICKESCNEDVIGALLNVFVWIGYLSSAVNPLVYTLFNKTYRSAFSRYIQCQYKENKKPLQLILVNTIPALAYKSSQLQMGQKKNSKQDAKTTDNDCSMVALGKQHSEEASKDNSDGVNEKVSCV

[5] = molecular target: T2, 5-hydroxytryptamine receptor 2A; assay type: functional, cell-based; remark: listed apart in the source
Also: assay procedure not described here.

Delta-type opioid receptor, sequence (P41143 whole entry): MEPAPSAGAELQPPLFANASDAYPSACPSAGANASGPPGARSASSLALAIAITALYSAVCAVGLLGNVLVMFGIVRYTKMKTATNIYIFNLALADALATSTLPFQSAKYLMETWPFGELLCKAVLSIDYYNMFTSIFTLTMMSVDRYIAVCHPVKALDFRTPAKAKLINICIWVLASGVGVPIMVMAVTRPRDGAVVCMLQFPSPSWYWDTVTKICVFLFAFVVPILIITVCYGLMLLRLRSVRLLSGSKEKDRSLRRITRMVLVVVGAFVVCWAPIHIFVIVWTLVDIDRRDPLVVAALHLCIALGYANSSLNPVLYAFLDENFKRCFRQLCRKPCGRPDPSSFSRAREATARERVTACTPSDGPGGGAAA

SMILES	AC50 [1]	AC50 [2]	AC50 [3]	AC50 [4]	AC50 [5]
O=C1CCc2cc(OCCCCc3nnnn3C3CCCCC3)ccc2N1 [CILOSTAZOL]	> 30 µM	–	–	–	–
CN1C[C@H](C(=O)N[C@]2(C)O[C@@]3(O)[C@@H]4CCCN4C(=O)[C@H](Cc4ccccc4)N3C2=O)C=C2c3cccc4[nH]cc(c34)C[C@H]21 [ERGOTAMINE]	> 30 µM	–	–	–	–
CC(=O)O[C@]1(C(C)=O)CC[C@H]2[C@@H]3C=C(C)C4=CC(=O)CC[C@@H]4[C@H]3CC[C@@]21C [NOMEGESTROL ACETATE]	> 30 µM	> 30 µM	> 30 µM	> 30 µM	> 30 µM
CC(S)C(=O)NCC(=O)O (stereo not drawn) [TIOPRONIN]	> 30 µM	> 30 µM	> 30 µM	> 30 µM	> 30 µM
O=C1C(CC[S+]([O-])c2ccccc2)C(=O)N(c2ccccc2)N1c1ccccc1 (stereo not drawn) [SULFINPYRAZONE]	> 30 µM	–	–	–	–
CN(CC1(C)CCCO1)S(=O)(=O)c1ccc(Cl)c(S(N)(=O)=O)c1 (stereo not drawn) [MEFRUSIDE]	> 30 µM	> 30 µM	> 30 µM	> 30 µM	> 30 µM
C[C@@H](NCCCc1cccc(C(F)(F)F)c1)c1cccc2ccccc12	> 30 µM	> 30 µM	14 µM	> 30 µM	> 30 µM
C#C[C@]1(O)CC[C@H]2[C@@H]3CCC4=CC(=O)CC[C@@H]4[C@H]3C(=C)C[C@@]21CC [ETONOGESTREL]	> 30 µM	> 30 µM	> 30 µM	> 30 µM	> 30 µM
CCN1CCN(Cc2ccc(Nc3ncc(F)c(-c4cc(F)c5nc(C)n(C(C)C)c5c4)n3)nc2)CC1 [ABEMACICLIB]	> 30 µM	> 30 µM	> 30 µM	> 30 µM	28 µM
COc1cc2nccc(Oc3ccc(NC(=O)C4(C(=O)Nc5ccc(F)cc5)CC4)cc3)c2cc1OC [CABOZANTINIB]	> 30 µM	> 30 µM	> 30 µM	> 30 µM	2.9 µM
C[C@H](CCC(=O)O)[C@H]1CC[C@H]2[C@@H]3[C@@H](O)C[C@@H]4C[C@H](O)CC[C@]4(C)[C@H]3CC[C@]12C [URSODIOL]	> 30 µM	> 30 µM	> 30 µM	> 30 µM	> 30 µM
CN(C)CCC[C@@]1(c2ccc(F)cc2)OCc2cc(C#N)ccc21 [ESCITALOPRAM]	> 30 µM	–	–	–	–
CN1C(C(=O)Nc2ccccn2)=C(O)c2ccccc2S1(=O)=O [PIROXICAM]	> 30 µM	–	–	–	–
CC(C(=O)O)c1ccc2c(c1)[nH]c1ccc(Cl)cc12 (stereo not drawn) [CARPROFEN]	> 30 µM	> 10 µM	> 30 µM	> 10 µM	> 10 µM
O=C1CN(/N=C/c2ccc(-c3ccc([N+](=O)[O-])cc3)o2)C(O)=N1 [DANTROLENE]	> 30 µM	> 10 µM	> 30 µM	> 10 µM	> 10 µM
C[C@]12C=CC(=O)N[C@@H]1CC[C@@H]1[C@@H]2CC[C@]2(C)[C@@H](C(=O)Nc3cc(C(F)(F)F)ccc3C(F)(F)F)CC[C@@H]12 [DUTASTERIDE]	> 30 µM	> 10 µM	> 30 µM	> 10 µM	> 10 µM
C[C@@H](Oc1cc(-c2cnn(C3CCNCC3)c2)cnc1N)c1c(Cl)ccc(F)c1Cl [CRIZOTINIB]	> 30 µM	> 30 µM	> 30 µM	–	–
OC[C@H]1O[C@@](CO)(O[C@H]2O[C@H](CO)[C@@H](O)[C@H](O)[C@H]2O)[C@@H](O)[C@@H]1O [SUCROSE]	> 30 µM	> 30 µM	> 30 µM	> 30 µM	> 30 µM
C=C[C@H]1C[N@@]2CC[C@H]1C[C@@H]2[C@@H](O)c1ccnc2ccc(OC)cc12 [QUINIDINE]	> 30 µM	6.5 µM	> 30 µM	–	–
CN(C)CC[C@@H](c1ccc(Cl)cc1)c1ccccn1 [DEXCHLORPHENIRAMINE]	> 30 µM	–	–	–	–
CC(N)C12CC3CC(CC(C3)C1)C2 (stereo not drawn) [RIMANTADINE]	> 30 µM	–	–	–	–
